Molecular target: USP30 (Homo sapiens (Human), UniProt Q70CQ3)
Assay: USP30 Biochemical IC50 Assay
Details: fluorescence polarisation, TAMRA labelled peptide linked to ubiquitin; 30 min pre-incubation, read after 2 h; read-out: IC50 range
Summary of the method: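 Enzyme preincubated 30 min at room temperature with compound, then 50 nM TAMRA-labelled isopeptide-linked ubiquitin–peptide substrate added. Fluorescence polarisation (ex 540/em 590 nm) read at once and after 2 h at room temperature; duplicate reactions.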

USP30, sequence (Q70CQ3 57-517): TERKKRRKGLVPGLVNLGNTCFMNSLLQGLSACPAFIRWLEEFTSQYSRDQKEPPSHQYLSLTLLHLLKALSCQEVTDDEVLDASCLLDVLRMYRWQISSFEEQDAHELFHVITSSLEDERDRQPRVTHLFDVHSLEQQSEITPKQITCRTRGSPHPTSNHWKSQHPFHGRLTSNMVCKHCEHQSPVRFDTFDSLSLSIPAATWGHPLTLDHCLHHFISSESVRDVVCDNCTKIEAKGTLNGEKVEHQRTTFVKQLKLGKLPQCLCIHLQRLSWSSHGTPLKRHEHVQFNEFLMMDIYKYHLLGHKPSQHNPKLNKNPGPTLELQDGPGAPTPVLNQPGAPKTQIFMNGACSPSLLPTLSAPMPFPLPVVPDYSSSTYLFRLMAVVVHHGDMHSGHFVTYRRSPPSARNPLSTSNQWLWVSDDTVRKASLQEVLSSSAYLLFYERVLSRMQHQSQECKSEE

Row | IC50 | Compound
1 | 100 to 1000 nM | N#Cc1ccc(-c2nccc(-c3nc([C@@H]4CCCN4C#N)no3)n2)cn1 [Example 201, (S)-5-(4-(3-(1-Cyanopyrrolidin-2-yl)-1,2,4-oxadiazol-5-yl)pyrimidin-2-yl)picolinonitrile]
2 | 100 to 1000 nM | N#Cc1cnn(-c2cncc(-c3nc([C@@H]4CCCN4C#N)no3)n2)c1 [Example 202, (S)-1-(6-(3-(1-Cyanopyrrolidin-2-yl)-1,2,4-oxadiazol-5-yl)pyrazin-2-yl)-1H-pyrazole-4-carbonitrile]
3 | < 100 nM | N#Cc1cc(-c2cncc(-c3nc([C@@H]4CCCN4C#N)no3)n2)ccn1 [Example 203, (S)-4-(6-(3-(1-Cyanopyrrolidin-2-yl)-1,2,4-oxadiazol-5-yl)pyrazin-2-yl)picolinonitrile]
4 | 100 to 1000 nM | N#Cc1cc(-c2cc(-c3nc([C@@H]4CCCN4C#N)no3)cnn2)ccn1 [Example 204, (S)-4-(5-(3-(1-Cyanopyrrolidin-2-yl)-1,2,4-oxadiazol-5-yl)pyridazin-3-yl)picolinonitrile]
